Results published in patent US9421269B2, “Saponin nano micelle, preparing method, application and pharmaceutical composition thereof” (FUJIAN SOUTH PHARMACEUTICAL CO., LTD, priority 2013, dated 2016).

Assay: appearance of drug-loading micelle solution versus contrast sample
Assay type: physicochemical
Conditions: in 10 ml absolute ethanol

Question: Which appearance of solution does the source give for `Oc1ccc(C=Cc2cc(O)cc(O)c2)cc1` [resveratrol] here?
Answer: murky
